{"source": "patent US7293985B2", "about": "(priority 1998, dated 2007)", "key": {"physchem [1]": {"assay": "physchem", "details": "buffer"}, "physchem [2]": {"assay": "physchem", "details": "pH 7"}, "red blood cell membranes": {"test_system": "red blood cell membranes", "details": "3 mM Glutathione added to PRBCs", "protocol": "The concentration of GSH was calculated based on the absorbance at 412 nm using a Beckman DU20 (Beckman, Irvine, Calif.) single wavelength spectrometer."}, "cell-free HIV-IIIB": {"test_system": "cell-free HIV-IIIB", "format": "cell-based", "details": "for Log Kill / Log Titer: no PIC-1, GSH 30 mM"}, "Yersinia enterocolitica": {"test_system": "Yersinia enterocolitica", "format": "cell-based"}, "[3]": {"test_system": "Staphylococcus epidermidis", "format": "cell-based"}, "[4]": {"test_system": "murine red blood cells (RBCs)", "details": "mouse, in vivo"}, "[5]": {"test_system": "Vesicular stomatitis virus (VSV)", "format": "cell-based"}}, "note": "Structures can show the parent of a compound that is named as a salt. Where two headings read alike, the source gives them in different places."}
{"smiles": "O=C(CCNc1c2ccccc2nc2ccccc12)OCCN(CCCl)CCCl", "note": "[PIC-1, β-alanine, N-(acridin-9-yl), 2-[bis(2-chloroethyl)amino]ethyl ester]", "values": [{"measurement": "half-life", "setting": "physchem [1]; pH 2.2", "result": 450, "unit": "min"}, {"measurement": "half-life", "setting": "physchem [1]; pH 6", "result": 25, "unit": "min"}, {"measurement": "half-life", "setting": "physchem [2]", "result": 32, "unit": "min"}]}
{"smiles": "N[C@@H](CCC(=O)N[C@@H](CS)C(=O)NCC(=O)O)C(=O)O", "note": "[glutathione]", "values": [{"measurement": "Absorption 412 nm Supernatant", "setting": "red blood cell membranes; Time 0 min", "result": 0.33}, {"measurement": "Absorption 412 nm Total", "setting": "red blood cell membranes; Time 0 min", "result": 0.230}, {"measurement": "GSH Concentration Supernatant", "setting": "red blood cell membranes; Time 0 min", "result": 3.071, "unit": "mM"}, {"measurement": "GSH Concentration Total", "setting": "red blood cell membranes; Time 0 min", "result": 5.286, "unit": "mM"}, {"measurement": "Absorption 412 nm Supernatant", "setting": "red blood cell membranes; Time 60 min", "result": 0.318}, {"measurement": "Absorption 412 nm Total", "setting": "red blood cell membranes; Time 60 min", "result": 0.227}, {"measurement": "GSH Concentration Supernatant", "setting": "red blood cell membranes; Time 60 min", "result": 2.96, "unit": "mM"}, {"measurement": "GSH Concentration Total", "setting": "red blood cell membranes; Time 60 min", "result": 5.217, "unit": "mM"}, {"measurement": "Absorption 412 nm Supernatant", "setting": "red blood cell membranes; Time 120 min", "result": 0.312}, {"measurement": "Absorption 412 nm Total", "setting": "red blood cell membranes; Time 120 min", "result": 0.231}, {"measurement": "GSH Concentration Supernatant", "setting": "red blood cell membranes; Time 120 min", "result": 2.90, "unit": "mM"}, {"measurement": "GSH Concentration Total", "setting": "red blood cell membranes; Time 120 min", "result": 5.308, "unit": "mM"}, {"measurement": "Absorption 412 nm Supernatant", "setting": "red blood cell membranes; Time 270 min", "result": 0.306}, {"measurement": "Absorption 412 nm Total", "setting": "red blood cell membranes; Time 270 min", "result": 0.213}, {"measurement": "GSH Concentration Supernatant", "setting": "red blood cell membranes; Time 270 min", "result": 2.85, "unit": "mM"}, {"measurement": "GSH Concentration Total", "setting": "red blood cell membranes; Time 270 min", "result": 4.898, "unit": "mM"}, {"measurement": "Absorption 412 nm Supernatant", "setting": "red blood cell membranes; Time 1080 min", "result": 0.297}, {"measurement": "Absorption 412 nm Total", "setting": "red blood cell membranes; Time 1080 min", "result": 0.227}, {"measurement": "GSH Concentration Supernatant", "setting": "red blood cell membranes; Time 1080 min", "result": 2.77, "unit": "mM"}, {"measurement": "GSH Concentration Total", "setting": "red blood cell membranes; Time 1080 min", "result": 5.217, "unit": "mM"}, {"measurement": "Absorption 412 nm Supernatant", "setting": "red blood cell membranes; Time 1440 min", "result": 0.296}, {"measurement": "Absorption 412 nm Total", "setting": "red blood cell membranes; Time 1440 min", "result": 0.220}, {"measurement": "GSH Concentration Supernatant", "setting": "red blood cell membranes; Time 1440 min", "result": 2.76, "unit": "mM"}, {"measurement": "GSH Concentration Total", "setting": "red blood cell membranes; Time 1440 min", "result": 5.058, "unit": "mM"}, {"measurement": "reduction of HIV infectivity", "setting": "cell-free HIV-IIIB; 30 mM glutathione alone (samples 2 and 4 compared to samples 1 and 3)", "result": "0.3 to 0.6", "unit": "logs"}, {"measurement": "Log Kill", "setting": "cell-free HIV-IIIB; 12 hour incubation (sample 4)", "result": 0.6, "unit": "log"}, {"measurement": "Log Titer", "setting": "cell-free HIV-IIIB; 12 hour incubation (sample 4)", "result": 6.4, "unit": "log"}, {"measurement": "Log Kill", "setting": "cell-free HIV-IIIB; no incubation (sample 2)", "result": 0.3, "unit": "log"}, {"measurement": "Log Titer", "setting": "cell-free HIV-IIIB; no incubation (sample 2)", "result": 6.9, "unit": "log"}, {"measurement": "Log Kill", "setting": "Yersinia enterocolitica", "result": 0, "unit": "log"}, {"measurement": "Log Titer", "setting": "Yersinia enterocolitica", "result": 7.4, "unit": "log"}, {"measurement": "reduction of inactivation", "setting": "Yersinia enterocolitica", "result": "1 to 2", "unit": "log kill"}, {"measurement": "Log Kill", "setting": "[3]", "result": 0, "unit": "log"}, {"measurement": "Log Titer", "setting": "[3]", "result": 7.5, "unit": "log"}, {"measurement": "recovery or lifespan of treated RBCs compared to label-only controls", "setting": "[4]", "result": "No difference"}]}
{"smiles": "N[C@@H](CS)C(=O)O", "note": "[cysteine]", "values": [{"measurement": "Log Kill", "setting": "Yersinia enterocolitica", "result": 0, "unit": "log"}, {"measurement": "Log Titer", "setting": "Yersinia enterocolitica", "result": 7.4, "unit": "log"}]}
{"smiles": "O=C(CCNc1c2ccccc2nc2ccccc12)NCCN(CCCl)CCCl", "note": "[PIC-2, P-alanine, N-(acridin-9-yl), 2-[bis(2-chloroethyl)amino]ethyl amide]", "values": [{"measurement": "RBC survival compared to control", "setting": "[4]", "result": "substantially the same as control"}, {"measurement": "recovery or lifespan of treated RBCs compared to label-only controls", "setting": "[4]", "result": "No difference"}]}
{"smiles": "O=S(=O)(O)CCS", "note": "[MENSA, mercaptoethanesulfonic acid sodium salt]", "values": [{"measurement": "Log Kill", "setting": "[5]", "result": 2.3, "unit": "log"}]}
